According to ChEMBL document CHEMBL5113385, “Natural products and synthetic analogues against HIV: A perspective to develop new potential anti-HIV drugs” (Eur J Med Chem, 2022):
≈ marks a conversion by molar mass, not a printed value.

Experiments:
[1] = tested on: C8166; test: Cytotoxicity against human C8166 cells assessed as reduction in cell viability by MTT assay; type: functional
[2] = target: T1, Human immunodeficiency virus type 1 reverse transcriptase (Human immunodeficiency virus 1, UniProt Q72547); test: Inhibition of HIV-1 reverse transcriptase using ABTS as substrate and RNA template primed with oligo(dT)12-18 in presence of digoxigenin/biotin-labeled nucleotides by ELISA
[3] = tested on: Human immunodeficiency virus 1; test: Antiviral activity against HIV-1 NL4-3 infected in human MT4 cells assessed as reduction in viral replication incubated for 48 hrs followed by addition of fresh medium containing compound measured after 2 days by ELISA; type: functional, organism-based; settings: Human immunodeficiency virus 1, NL4-3, MT4, 48 h
[4] = tested on: Human immunodeficiency virus 1; test: Antiviral activity against HIV-1 infected in human C8166 cells assessed as reduction in virus-induced cytopathic effect by MTT assay; type: functional, organism-based; settings: Human immunodeficiency virus 1, C8166
[5] = target: Human immunodeficiency virus type 1 reverse transcriptase (Human immunodeficiency virus 1) (UniProt Q72547); test: Inhibition of recombinant HIV-1 reverse transcriptase at 200 ug/ml by ELISA relative to control; settings: dose 200.0 µg/ml
[6] = tested on: Human immunodeficiency virus 1; test: Antiviral activity against HIV-1 MC99 harboring deltaTat/Rev infected in human 1A2 cells assessed as reduction in syncytium formation preincubated for 1 hr followed by virus infection measured after 3 days by inverted microscopy; type: functional, organism-based; settings: Human immunodeficiency virus 1, MC99, 1A2
[7] = Selectivity index, ratio of IC50 for human 1A2 cells to EC50 for HIV-1 MC99 harboring deltaTat/Rev infected in human 1A2 cells; type: toxicity, cell-based; settings: read-out: Ratio IC50/EC50
[8] = target: Human immunodeficiency virus type 1 protease (Human immunodeficiency virus 1) (UniProt Q72874); test: Inhibition of HIV-1 protease relative to control; settings: concentration not given here
[9] = target: T1, Human immunodeficiency virus type 1 reverse transcriptase; test: Inhibition of HIV-1 LTR reverse transcriptase infected in human CEM cells using RNA template incubated for 1 hr by RT-PCR based cell-free assay
[10] = tested on: Human immunodeficiency virus 1; test: Antiviral activity against HIV-1 assessed as viral growth inhibition; type: functional, organism-based
[11] = target: T1, Human immunodeficiency virus type 1 reverse transcriptase; test: Inhibition of HIV-1 reverse transcriptase preincubated for 45 mins followed by substrate addition by immunoassay
[12] = target: T1, Human immunodeficiency virus type 1 reverse transcriptase; test: Inhibition of recombinant HIV-1 reverse transcriptase using ABTS as substrate incubated for 1 hr by ELISA
[13] = tested on: Influenza A virus; test: Antiviral activity against Influenza virus A/Puerto Rico/8/34 (H1N1) infected in MDCK cells assessed as reduction in viral titer preincubated for 1 hr followed by viral infection at MOI of 0.01 for 24 hrs and subsequent addition of culture medium and incubated for 48 hrs followed by addition of chicken erythrocytes measured after 40 mins by agglutination method; type: functional, organism-based
[14] = tested on: Human immunodeficiency virus 1; test: Antiviral activity against patient-derived wild-type HIV-1 infected in human CEM-T4 cells assessed as inhibition of viral replication preincubated for 24 hrs followed by viral infection measured after 7 days by ELISA; type: functional, organism-based; settings: Human immunodeficiency virus 1, CEM-T4
[15] = tested on: Human immunodeficiency virus 1; test: Antiviral activity against HIV-1 infected in PBMC (unknown origin) assessed as viral growth inhibition; type: functional, organism-based; settings: Human immunodeficiency virus 1, PBMC

## CC(=O)[C@@H]1Cc2cc3ccc(=O)oc3cc2O1
[1]
  CC50: > 200 µM

## C=C(CO)[C@@H]1Cc2cc3ccc(=O)oc3cc2O1
[1]
  CC50: > 200 µM

## COC(=O)/C=C\c1c(-c2cccs2)[nH]c2ccccc12
[2]
  IC50: 0.00938 µM

## CCCCC/C=C/C=C/O[C@@]12[C@@H]([C@H]3OCO[C@@]3(C(C)=O)[C@H](OC(=O)CCCC)[C@H]1C)[C@@H]1O[C@]1(CO)[C@@H](O)[C@]1(O)C(=O)C(C)=C[C@H]12
[3]
  IC50: 0.0009 µM

## C=CC(CO)[C@@H]1C[C@H]2c3[nH]c4ccccc4c3CCN2C(=O)[C@@H]1CO (stereo not given in full)
[4]
  EC50: 12.2 µM

## COc1cc(-c2oc3cc(O)cc(O)c3c(=O)c2O)ccc1O
[5]
  inhibition: 57%

## COc1cc2c(c(O)c1OC)C(=O)C[C@@H](c1cc(O)c(OC)c(O)c1)O2
[6]
  EC50: < 8.02 µM
[7]
  selectivity ratio: 1.12

## COc1cc2cc3c(cc2oc1=O)OC(C)(C)CC3
[1]
  CC50: > 200 µM

## O=C1C[C@@H](c2ccc(O)cc2)Oc2cc(O)cc(O)c21
[5]
  inhibition: 44.2%

## C=C(C)[C@]12C[C@@H](COC(C)=O)[C@@]34OC5(O[C@@H]1[C@@H]3[C@@H]1O[C@]1(CO)[C@@H](O)[C@@]1(O)[C@H]4[C@H]([C@H](C)[C@@H]1C(=O)c1ccccc1)[C@H](C)C[C@H](C(=O)c1ccccc1)[C@H](C(=O)c1ccccc1)CCC[C@H]5O)O2
[3]
  IC50: ≤ 0.00025 µM

## C=C(C)[C@@H]1CC[C@@H]2[C@]3(CC[C@]4(C)/C(=C(\C)CC/C=C(/C)C(=O)O)CC[C@@]24C)C[C@]13CCC(=O)O
[8]
  inhibition: 85%

## C=CCOCc1cn(C2CCON2C(=O)OCc2ccccc2)c(=O)[nH]c1=O (stereo not given)
[9]
  IC50: 0.01 µM

## CO[C@H](Cc1cc2ccc(=O)oc2cc1O)C(C)(C)O
[1]
  CC50: > 200 µM

## CC(C)=CCc1cc2ccc(=O)oc2c(CC=C(C)C)c1O
[1]
  CC50: > 200 µM

## CC1=C(C(=O)OCc2ccccc2)C(c2ccc(Cl)c([N+](=O)[O-])c2)NC(=O)N1 (stereo not given)
[10]
  IC50: 15 µg/mL (≈ 37.3 µM)

## C=CC(C)(C)c1cc2cc(C[C@@H](O)C(C)(C)O)c(O)cc2oc1=O
[1]
  CC50: > 200 µM

## O=C1CSC(c2ccc(F)cc2)N1c1nc2c(Cl)cccc2s1 (stereo not given)
[11]
  IC50: < 0.001 µM

## COC(=O)/C=C/c1c(-c2cccs2)[nH]c2ccccc12
[2]
  IC50: 0.72 µM

## COc1cc([C@@H]2CC(=O)c3c(cc(OC)c(OC)c3O)O2)cc(OC)c1OC
[6]
  EC50: 172 µM
[7]
  selectivity ratio: 1.12

## O=C(OCc1ccccc1)N1OCCC1n1cc(COCc2ccccc2)c(=O)[nH]c1=O (stereo not given)
[9]
  IC50: 1 µM

## O=C(O)[C@]1(O)C[C@H](O)[C@@H](O)[C@@H](O)C1
[12]
  IC50: 280 µM

## C=CC(C)(C)c1cc2cc3c(cc2oc1=O)O[C@H](C(C)(C)O)[C@H]3O
[1]
  CC50: > 200 µM

## Cc1cn([C@H]2C[C@H](n3cc(Cn4nnnc4CC(=O)N(C)C)nn3)[C@@H](CO)O2)c(=O)[nH]c1=O
[13]
  IC50: 39.6 µg/mL (≈ 86 µM)

## C=C(CP(=O)(OCC)OCC)[C@@H]1CC[C@]2(C(=O)O)CC[C@]3(C)[C@H](CC[C@@H]4[C@@]5(C)CC[C@H](OC(=O)CC(C)(C)C(=O)O)C(C)(C)[C@@H]5CC[C@]43C)[C@@H]12
[14]
  IC50: 0.3 µM

## CCCCC/C=C\C=C/O[C@@]12[C@@H]([C@H]3OCO[C@@]3(C(C)=O)[C@H](OC(C)=O)[C@H]1C)[C@@H]1O[C@]1(CO)[C@@H](O)[C@]1(O)C(=O)C(C)=C[C@H]12
[3]
  IC50: 0.0009 µM

## CC1(C)Oc2cc3oc(=O)ccc3cc2[C@@H](O)[C@@H]1O
[1]
  CC50: > 200 µM

## COc1cc(O)c(-c2c(C)cc(O)c3c2Cc2cccc(O)c2C3=O)c(O)c1C(C)=O
[15]
  EC50: 4.3 µM

## C=C(C)[C@@H]1CC[C@@H]2[C@]3(CC[C@]4(C)[C@@H]([C@H](C)CC/C=C(/C)C(=O)O)CC[C@@]24C)C[C@]13CCC(=O)O
[8]
  inhibition: 89.2%
